System: Bmi-1
Test: Sandwich ELISA Assay (Bmi-1 ELISA) in HT-1080 cells
Assay type: cell-based
Procedure: Cell Seeding and Compound Treatment (Day 1):
HT-1080 cells were seeded at 8000 cells/well (50 μL) in 96-well tissue culture plates. After the cells became adherent (3-4 hours), 2× diluted stocks of test compounds in 50 μL DMEM containing 1% DMSO (final DMSO concentration was 0.5%) were added and the plates were incubated at 37° C. under 5% CO2 for 40-48 hours.
ELISA Plate First Antibody Preparation (Day 2):
The First Antibody (Millipore Mouse, monoclonal to mouse Bmi-1, clone F6, catalog #05-637) diluted to 2 μg/mL in PBS was added (100 μL) to each well of a Nunc MaxiSorp 96-well ELISA plate. The plate was covered with a plate seal and allowed to stand overnight.
Cell Lysate Preparation (Day 3):
Fresh 1× Lysis buffer was prepared on the day of the assay as follows: 1 mM EDTA, 150 mM NaCl, 0.5% Triton-X 100, 10 mM NaF, 20 mM B-Glycerophosphate, 1 mM DTT (in PBS, pH 7.2-7.4) and 1× HALT protease inhibitor cocktail (Pierce #78410).
The 1× Lysis Buffer (40 μL) was added to each well and the plate was shaken for 5-10 minutes on an orbital shaker to allow cell lysis, then diluent (1% BSA in PBS in 0.5% NP40) (100 μL) was added to each well.
A standard curve was prepared at the following Bmi-1 concentrations: 8000, 4000, 2000, 1000, 500, 250, 125, 0 pg/mL The Bmi-1 Recombinant Protein Standard (Novus Biologicals PCGF4 Recombinant Protein (P01), catalog #H00000648-P01) used to prepare the standard curve was stored at −80° C. On first thaw, the Bmi-1 Recombinant Protein Standard was diluted to […] in Blocking Buffer (1% BSA in PBS; BSA: Fisher Scientific Catalog #1600-100). Aliquots were taken and refrozen at −80° C. The aliquots may be kept at 4° C. and reused after first thaw, but only within 1-2 weeks. The Bmi-1 Recombinant Protein Standard contains a GST-fusion tag that appears around 70 Kda on Western Blot.
The prepared ELISA plate was washed 3× with Wash Buffer (0.05% Tween-20 in PBS). The final wash was removed from the plate and the plate was blotted dry. Blocking Buffer (300 μL) (1% BSA in PBS) was added to each well. The plate was covered with a plate seal and incubated at room temperature for 1 hour. The blocked plate was washed 3× with Wash Buffer, then the final wash was removed and the plate was blotted dry. The previously prepared samples and standards were added (100 μL/well) and the plate was covered with a plate seal and incubated at 4° C. overnight.
The prepared ELISA plate was removed from 4° C., incubated at room temperature for 30 minutes, then washed and blotted dry as previously described for Day 3. The Second Antibody (Cell Signaling Rabbit anti-Bmi-1, Cat #2830) diluted to 1:600 in Blocking Buffer was added (100 μL) to each well, except as needed for background control wells. The plate was covered with a plate seal and incubated for 1.5 hrs at room temperature.
The ELISA plate was washed and blotted dry as previously described. The Third Antibody (Cell Signaling HRP conjugated anti-rabbit IgG (CellSignaling, Cat #:7074) diluted to 1:300 in Blocking Buffer was added (100 μL) to each well, except as needed for background control wells. The plate was incubated for 1 hr at room temperature.
The plate was washed and blotted dry as previously described, then prepared TMB substrate (TMB substrate kit, Pierce catalog #34021) (prepared by mixing kit reagents 1:1) (100 μL) was added per well. The plate was incubated for 20-30 minutes at room temperature in the dark, then Stop Solution (2 M sulfuric acid in water) (50 μL) was added per well. The plates were read at OD450 (experimental) and OD570 (reference).

EC50 [nM]	SMILES
100 to 3000	COc1ccc(Nc2ccnc(-c3c(C(F)(F)F)nc4ccccn34)n2)cn1 [Cpd 30, N-(6-methoxypyridin-3-yl)-2-[2-(trifluoromethyl)imidazo[1,2-a]pyridin-3-yl]pyrimidin-4-amine]
10 to 100	CN(C)c1ccc(Nc2ccnc(-c3c(C(F)(F)F)nc4ccccn34)n2)cn1 [Cpd 31, N^2,N^2-dimethyl-N^5-{2-[2-(trifluoromethyl)imidazo[1,2-a]pyridin-3-yl]pyrimidin-4-yl]pyridine-2,5-diamine]
100 to 3000	FC(F)(F)c1ccc(Nc2ccnc(-c3c(C(F)(F)F)nc4ccc(Br)cn34)n2)cc1 [Cpd 32, 2-[6-bromo-2-(trifluoromethyl)imidazo[1,2-a]pyridin-3-yl]-N-[4-(trifluoromethyl)phenyl]pyrimidin-4-amine]
10 to 100	COc1ccc(Nc2ccnc(-c3c(C(F)(F)F)nc4ccc(Br)cn34)n2)cc1 [Cpd 33, 2-[6-bromo-2-(trifluoromethyl)imidazo[1,2-a]pyridin-3-yl]-N-(4-methoxyphenyl)pyrimidin-4-amine]
1 to 10	COc1ccc(Nc2ccnc(-c3c(C(F)(F)F)nc4ccccn34)n2)cc1F [Cpd 34, N-(3-fluoro-4-methoxyphenyl)-2-[2-(trifluoromethyl)imidazo[1,2-a]pyridin-3-yl]pyrimidin-4-amine]
100 to 3000	COc1ccc(Nc2ccnc(-c3c(C(F)(F)F)nc4ccccn34)n2)cc1Cl [Cpd 35, N-(3-chloro-4-methoxyphenyl)-2-[2-(trifluoromethyl)imidazo[1,2-a]pyridin-3-yl]pyrimidin-4-amine]
10 to 100	Cc1ccc(Nc2ccnc(-c3c(C(F)(F)F)nc4ccccn34)n2)cc1Cl [Cpd 36, N-(3-chloro-4-methylphenyl)-2-[2-(trifluoromethyl)imidazo[1,2-a]pyridin-3-yl]pyrimidin-4-amine]
10 to 100	CCOc1ccc(Nc2ccnc(-c3c(C(F)(F)F)nc4ccccn34)n2)cc1 [Cpd 37, N-(4-ethoxyphenyl)-2-[2-(trifluoromethyl)imidazo[1,2-a]pyridin-3-yl]pyrimidin-4-amine]
100 to 3000	CC(C)c1ccc(Nc2ccnc(-c3c(C(F)(F)F)nc4ccccn34)n2)cc1 [Cpd 38, N-[4-(propan-2-yl)phenyl]-2-[2-(trifluoromethyl)imidazo[1,2-a]pyridin-3-yl]pyrimidin-4-amine]
100 to 3000	FC(F)(F)c1nc2ccccn2c1-c1nccc(Nc2ccc(-n3cccn3)cc2)n1 [Cpd 39, N-[4-(1H-pyrazol-1-yl)phenyl]-2-[2-(trifluoromethyl)imidazo[1,2-a]pyridin-3-yl]pyrimidin-4-amine]
100 to 3000	COc1ccc(Nc2ccnc(-n3c(C)nc4ccccc43)n2)cc1Cl [Cpd 40, N-(3-chloro-4-methoxyphenyl)-2-(2-methyl-1H-benzimidazol-1-yl)pyrimidin-4-amine]
100 to 3000	Cc1nc2ccccc2n1-c1nccc(Nc2ccc(C(F)(F)F)cc2)n1 [Cpd 41, 2-(2-methyl-1H-benzimidazol-1-yl)-N-[4-(trifluoromethyl)phenyl]pyrimidin-4-amine]
10 to 100	COc1ccc(Nc2ccnc(-n3c(C(F)(F)F)nc4ccccc43)n2)cc1Cl [Cpd 42, N-(3-chloro-4-methoxyphenyl)-2-[2-(trifluoromethyl)-1H-benzimidazol-1-yl]pyrimidin-4-amine]
10 to 100	Cc1ccc(Nc2nc(-c3c(C(F)(F)F)nc4ccccn34)ncc2F)cc1 [Cpd 43, 5-fluoro-N-(4-methylphenyl)-2-[2-(trifluoromethyl)imidazo[1,2-a]pyridin-3-yl]pyrimidin-4-amine]
100 to 3000	Cc1ccc(Nc2nc(-c3c(C(F)(F)F)nc4ccccn34)ncc2Cl)cc1 [Cpd 44, 5-chloro-N-(4-methylphenyl)-2-[2-(trifluoromethyl)imidazo[1,2-a]pyridin-3-yl]pyrimidin-4-amine]
100 to 3000	COc1ccc(Nc2ccnc(-c3c(C(F)(F)F)nc4cnccn34)n2)cc1 [Cpd 45, N-(4-methoxyphenyl)-2-[2-(trifluoromethyl)imidazo[1,2-a]pyrazin-3-yl]pyrimidin-4-amine]

From patent US11180483B2, “Substituted reverse pyrimidine Bmi-1 inhibitors” (PTC Therapeutics, Inc., priority 2012, dated 2021)
